What was measured:
[1] = herbal medicines, background statement; cited from earlier work
[2] = Inventor's clinical observation of patients with lymphedema / fluid accumulation treated orally; assay type: in vivo
Excerpt: The inventor disagrees with the basic assumption and hypothesis on the inner working of guaifenesin. The inventor believes that guaifenesin's activity is its ability to break down undigested protein, and antigen-antibody complexed protein within the tissues and lymphatic nodes and vessels to reduce fluid accumulation and therefore reduce lymphedema. Guaifenesin is an expectorate and it thins out proteinaceous secretions from our lungs by directly and/or indirectly through stimulating macrophages to breaking the proteins into its amino acids components. The inventor believes that guaifenesin break down the proteins within the blood stream, tissues, and the lymphatic system. By maintaining a high level of guaifenesin within the blood stream, the “foreign” proteins within the tissue, antigen-antibody protein complexes within the lymph nodes will be broken down allowing the broken down amino acid particles to diffuse across the tissue into the lymphatic drainage. With this fluid switch from the lymphatic to the systemic circulation diuresis ensues without affecting the potassium metabolism within the kidney. The inventor has also observed lymphedema that occurs in non-fibromyalgia patients that responds well to guaifenesin therapy resulting in reduction of the swelling. […] These observations confirm the hypothesis that guaifenesin works on the “foreign” protein or antigen-antibodies protein complexes within the tissues and lymphatic system. With different size “foreign” protein and antigen-antibody protein complexes, guaifenesin's action on these proteins in various part of the body will proceed with different rate resulting in different rate of swelling reduction in different part of the bodies. Many of these patients, however, are diagnosed by a physician to have a cardiogenic etiology of edema and are typically treated with diuretics of various types. Cardiogenic edema should respond to a diuretic within […]. The inventor has observed patients being on diuretics for as long as a year with no results on the lymphedema. In testing this hypothesis, the inventor has used guaifenesin on over several hundred patients in varying dosages. […] Guaifenesin is also available in sustained-release version. The long-acting version is typically available at 600 mg and is designed to be taken two or three times a day. […] Other combinations of various dosage for ms may be used with various patients to improve results. […] While the inventor has only administered guaifenesin to patients orally, guaifenesin and its analogs can be formulated using known methods to prepare pharmaceutically useful compositions by combining guaifenesin with a pharmaceutically acceptable carriers and adapted to be administered by injection, transdermally, transmucosally or by any other means of drug delivery vehicle. Guafenesin may also be administered to a patient in a patch form or in a cream, ointment, or in a nasal or lung spray, or in a suppository.

Row | SMILES | swelling of lymphedema [1] | results with combination of short acting and long acting versions ([2]; combination of short acting and long acting versions) | painful and swollen lymph nodes ([2]; fibromyalgia patients on guaifenesin) | results with long-acting (sustained-release) version alone ([2]; long-acting version, typically 600 mg two or three times a day) | response of lymphedema (reduction of the swelling) ([2]; non-fibromyalgia patients, guaifenesin therapy) | accumulated fluid ([2]; over several hundred patients, oral, about 600 mg to about 4000 mg per day)
1 | O=c1ccc2ccccc2o1 [coumarin] | decrease some of the swelling associated with lymphedema |  |  |  |  | 
2 | COc1ccccc1OCC(O)CO (stereo not drawn) [guaifenesin] |  | improves the results | reduction of the painful and swollen lymph nodes | may not work well in some patients | responds well | reduction of accumulated fluid

Reference: patent US6436448B1, “Method for the treatment of lymphedema using guaifenesin” (Sky BioHealth Solutions, Inc., priority 2001, dated 2002)
